Reference: PubChem BioAssay (NCI)
Values joined by “and” are separate entries in the source; they are usually repeats but may differ in a detail not shown here. Identical values can stand only once.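 Exposure lasted 48 hours, with cells grown in 96-well plates and compounds tested at five concentrations. The concentration for 50% growth inhibition is given as GI50. TGI: concentration producing complete growth inhibition.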

Legend:
Test in all cases: NCI-60 cell line screen, 48 h
[1] = system: EKVX NSCLC
[2] = system: M14 melanoma
[3] = system: SK-MEL-2 melanoma
[4] = system: RXF 393 renal
[5] = system: KM12 colon
[6] = system: IGROV1 ovarian
[7] = system: ACHN renal
[8] = system: SF-295 CNS
[9] = system: COLO 205 colon

SMILES	GI50 [1]	TGI [1] [µM]	GI50 [2]	TGI [2] [µM]	GI50 [3]	TGI [3]	GI50 [4]	TGI [4]	GI50 [5]	TGI [5]	GI50 [6]	TGI [6]	GI50 [7]	TGI [7] [µM]	GI50 [8]	TGI [8]	GI50 [9]	TGI [9]
O=C(/C=C/N1CCN(c2cccc(C(F)(F)F)c2)CC1)c1ccc(Cl)cc1Cl	27.9 µM	65.4	17.2 µM	36.1	37.5 µM	> 100 µM	30.9 µM	73.4 µM	28.1 µM	75.9 µM	30 µM	58.2 µM	23.4 µM	46.9	14.7 µM	32.4 µM	36.2 µM	> 100 µM
COc1ccc(C[C@H]2C[C@@H](O)[C@@H](C)C/C=C/Cc3cccc(O)c3C(=O)O2)cn1	32.1 µM	> 100	18.7 µM	36.6	14.7 µM	34.5 µM	30.5 µM	> 100 µM	23.5 µM	62.4 µM	13 µM	34.4 µM	25.5 µM	65.9	18 µM	41.5 µM	34 µM	> 100 µM
COc1cccc(-c2nn(-c3ccccc3)cc2-c2ccnc(NCCNC(=O)Nc3ccc(Cl)c(Cl)c3)c2)c1	2.48 µM	16.7	1.67 µM	4.05	2.09 µM	5.17 µM	1.2 µM	3.15 µM	2.27 µM	5.79 µM	3.61 µM	15.6 µM	2.79 µM	10.2	2.41 µM	7.28 µM	2.07 µM	4.44 µM
CCOP(=O)(OCC)/C(C#N)=C\c1cccc2ccccc12	–	> 100	–	> 100	–	> 100 µM	–	> 100 µM	–	> 100 µM	–	> 100 µM	–	> 100	–	> 100 µM	–	> 100 µM
COc1ccc2nc3ccc(OC)cc3c(SCCCN)c2c1	15.9 µM	35.6	8.48 µM	31.1	6.05 µM	11.7 µM	2.42 µM	9.85 µM	4.52 µM	20.5 µM	8.46 µM	27.2 µM	4.72 µM	19.5	18.3 µM	38.7 µM	1.42 µM	2.97 µM
COc1ccccc1Cn1cc2c(c1)-c1oncc1CC2	0.83 µM	> 94.2	0.549 µM	> 41.9	4.43 µM	72.7 µM	1.31 µM	> 21.4 µM	0.435 µM	6.94 µM	1.84 µM	> 78.7 µM	2.12 µM	> 100	0.375 µM	3.88 µM	0.553 µM	2.43 µM
O=C(N[C@@H]1CCCc2ccccc21)[C@H](CCC(=O)N1CCN(C2CCCCC2)CC1)N1C(=O)[C@@H](N2C(=O)OC[C@@H]2c2ccccc2)[C@H]1/C=C/c1ccccc1	2.52 µM	> 100	1.47 µM	3.31	1.92 µM	4.29 µM	1.71 µM	3.34 µM	2.62 µM	11.6 µM	2.44 µM	41.3 µM	2.78 µM	22.1	2.34 µM	7.57 µM	1.59 µM	3.52 µM
COc1cc[nH]c1/C=C1\C(=O)Nc2ccc(F)c(C#CC3(O)CCOCC3)c21	–	–	0.664 µM	4.28	0.47 µM	2.14 µM	0.305 µM	1.01 µM	0.0104 µM	1.92 µM	0.86 µM	> 7.18 µM	0.487 µM	> 25	0.849 µM	16.4 µM	0.408 µM	1.13 µM
Nc1ncnc2occ(-c3ccc(NC(=O)Nc4cc(C(F)(F)F)cc(C(F)(F)F)c4)cc3)c12	3.16 µM	8.07	3.09 µM	6.4	3.72 µM	7.47 µM	1.24 µM	4.51 µM	0.0916 µM	3.95 µM	3.05 µM	9.94 µM	2.94 µM	12.6	2.72 µM	6.53 µM	4.23 µM	7.96 µM
CC1(C)N=C(N)N=C(N)N1c1ccc(OCC(=O)Nc2cccc(S(=O)(=O)F)c2)c(Cl)c1	–	–	–	> 100	–	> 100 µM	–	> 100 µM	–	> 95 µM	–	> 100 µM	–	> 100	–	> 73.5 µM	–	> 100 µM
CCN(CC)CCOc1ccc(/C=C2\C[C@H]3[C@@H]4CC=C5C[C@@H](OC(C)=O)CC[C@]5(C)[C@H]4CC[C@]3(C)[C@H]2OC(C)=O)cc1OC	6.84 µM	14.5	7.62 µM	17.2	19.2 µM	> 50 µM	8.96 µM	20.7 µM	9.65 µM	21.4 µM	14.9 µM	> 50 µM	9.19 µM	19.2	12.2 µM	24.3 µM	19.6 µM	> 50 µM
COc1ccc2c(c1O)[C@@]13C=C(O)C(=O)C=C1[C@@H](C2)N(C)CC3	–	> 100	–	> 100	–	> 100 µM	–	> 100 µM	–	> 100 µM	–	> 100 µM	–	> 100	–	> 100 µM	–	> 100 µM
Cn1c(=O)n(-c2ccc(C(C)(C)C#N)cc2)c2c3cc(-c4cnc5ccccc5c4)ccc3ncc21	0.0152 µM and 0.00573 µM and < 0.012 µM	–	0.018 µM and 0.00656 µM and < 0.01 µM	–	0.012 µM and 0.00598 µM and 0.0137 µM	0.0505 µM and 0.292 µM and 0.0744 µM	< 0.01 µM and 0.00351 µM	0.0605 µM and 0.00781 µM and 0.0181 µM	0.0134 µM and 0.00683 µM and 0.0153 µM	1.28 µM and > 10 µM	< 0.01 µM and 0.00363 µM	0.0258 µM and 0.0381 µM	< 0.0121 µM and 0.00573 µM and < 0.01 µM	> 100	< 0.01 µM and 0.00401 µM	0.0278 µM and 0.0203 µM and 0.0181 µM	0.0231 µM and 0.00593 µM	0.702 µM and 0.938 µM
CC(C)(C)n1cc(-c2ccnc(NCCNS(=O)(=O)c3ccc(Br)cc3)c2)c(-c2cccc(O)c2)n1	2.27 µM	6.88	1.77 µM	3.4	1.93 µM	3.99 µM	1.49 µM	3.23 µM	1.99 µM	4.32 µM	1.95 µM	4.39 µM	2.1 µM	4.39	1.82 µM	3.61 µM	1.49 µM	3.13 µM
Cc1c(C(C)C)cc(OCCO)cc1C(C)C	–	70.9	–	> 100	–	57.3 µM	–	36.2 µM	–	> 100 µM	–	> 100 µM	–	> 100	–	> 100 µM	–	> 100 µM
Oc1cccc(-c2nc3ccccc3s2)c1	–	42.7	–	60.4	–	> 100 µM	–	> 100 µM	–	48.6 µM	–	63.8 µM	–	> 100	–	86.7 µM	–	> 100 µM
COc1cc(C(c2cc3c(cc2O)OCO3)N2CCCC2)cc(OC)c1OC (centres undefined)	–	30	–	> 100	–	40 µM	–	–	–	37.2 µM	–	27.8 µM	–	28.8	–	36 µM	–	26.5 µM

SMILES	GI50 [1]	TGI [1] [µM]	GI50 [2]	TGI [2] [µM]	GI50 [3]	TGI [3]	GI50 [4]	TGI [4]	GI50 [5]	TGI [5]	GI50 [6]	TGI [6]	GI50 [7]	TGI [7] [µM]	GI50 [8]	TGI [8]	GI50 [9]	TGI [9]
CC1Cc2c(N(C)C)ncnc2N(C)c2ccc(Cl)cc21 (centres undefined)	2.77 µM	> 100	2.39 µM	> 100	5.88 µM	57.3 µM	2.03 µM	6.98 µM	3.15 µM	> 100 µM	8.48 µM	> 100 µM	7.59 µM	> 100	1.98 µM	9.85 µM	2.44 µM	6.55 µM
CC[C@]12C=CCN3CC[C@]4(C(=C(C(=O)OC)C1)Nc1cc(O)ccc14)[C@@H]32	24.6 µM	> 100	13.9 µM	34.3	18.2 µM	48.6 µM	13.3 µM	28.9 µM	13.1 µM	30.6 µM	19.1 µM	57.3 µM	18.5 µM	41.4	16.7 µM	33.1 µM	21.8 µM	47.3 µM
O=C(OCc1ccccc1CN1CCOCC1)c1ccc(Br)cc1	–	> 100	–	> 100	–	> 100 µM	–	> 100 µM	–	–	–	> 100 µM	–	> 100	–	–	–	> 100 µM
COc1ccccc1C(=O)c1cnc(NC2CCN(S(C)(=O)=O)CC2)nc1N	–	–	10.2 µM	> 25	9.93 µM	> 25 µM	4.4 µM	10.5 µM	5.74 µM	> 25 µM	8.05 µM	> 25 µM	4.68 µM	> 25	5.5 µM	> 25 µM	4.37 µM	> 15.4 µM
CCCCCCCCCCCCCCCC[N+]1(CC)CCCC1	–	–	0.474 µM	1.72	–	–	–	–	0.73 µM	2.04 µM	0.432 µM	1.87 µM	1.33 µM	4.43	–	–	0.291 µM	0.731 µM
O=C1c2ccccc2-c2cc3ccccc3c(=O)n21	–	> 100	–	> 100	–	> 100 µM	–	–	–	> 100 µM	–	> 100 µM	–	> 100	–	> 100 µM	–	> 100 µM
O=C(Cc1nc2ccc(C(=O)c3ccccc3)cc2[nH]c1=O)C(=O)Nc1ccccc1[N+](=O)[O-]	–	> 100	–	> 100	–	> 100 µM	–	> 100 µM	–	> 100 µM	–	> 100 µM	–	> 100	–	> 100 µM	–	–
c1ccc2c(c1)CCCc1cc3ccccc3nc1-2	–	> 100	–	> 100	–	> 100 µM	–	–	–	> 100 µM	–	> 100 µM	–	> 100	–	> 100 µM	–	> 100 µM
O=C1C=C(Nc2cccc(Br)c2)c2ccccc2C1=O	–	–	0.611 µM	13.1	0.785 µM	22 µM	3.27 µM	22.4 µM	4.13 µM	> 100 µM	10.5 µM	37.5 µM	0.957 µM	> 100	3.21 µM	15.1 µM	> 100 µM	> 100 µM
Cc1nnc([S-])s1.[Au+].c1ccc([PH+](c2ccccc2)c2ccccc2)cc1	–	–	1.62 µM	3.56	1.64 µM	3.11 µM	1.26 µM	2.53 µM	1.83 µM	3.41 µM	1.53 µM	2.97 µM	1.86 µM	3.26	1.74 µM	3.21 µM	–	–
COc1ccc(C2=CC(c3cc(OC)c(OC)c(OC)c3)n3ncnc3N2)cc1 (centres undefined)	0.0788 µM	> 100	0.0333 µM	> 100	16.9 µM	71.1 µM	–	–	0.0402 µM	18.9 µM	0.0912 µM	31.1 µM	0.152 µM	43.9	0.0228 µM	0.0742 µM	0.0335 µM	0.16 µM
CO[C@H]1C=C[C@]23c4cc5c(cc4CN(CC2O)[C@@H]3C1)OCO5 (some centres undefined)	–	52.2	–	> 100	–	6.31 µM	–	–	–	28.3 µM	–	26 µM	–	6.73	–	4.14 µM	–	17.9 µM
COC(=O)C(CC=O)C(=O)C(=O)Nc1cccc(C(F)(F)F)c1 (centres undefined)	–	> 100	–	> 100	–	> 100 µM	–	> 100 µM	–	> 100 µM	–	> 100 µM	–	> 100	–	> 100 µM	–	–
COC(=O)c1cc(Nc2ccc(O)c3c2C(=O)c2c([N+](=O)[O-])ccc(O)c2C3=O)cc(C(=O)OC)c1	–	–	3.15 µM	> 100	4.05 µM	> 100 µM	5.09 µM	> 100 µM	34.5 µM	> 100 µM	26.9 µM	> 100 µM	21.3 µM	> 100	21.8 µM	> 100 µM	2.38 µM	5.56 µM
Cc1ccc([P+](Cc2ccc([N+](=O)[O-])cc2)(c2ccc(C)cc2)c2ccc(C)cc2)cc1	–	–	2.96 µM	12.3	1.96 µM	4.51 µM	5.55 µM	20.2 µM	2.44 µM	10.2 µM	2.53 µM	14.8 µM	15.8 µM	38.4	5.24 µM	18.6 µM	1.65 µM	3.95 µM
O=C1OC(c2ccc(O)cc2)(c2ccc(O)cc2)c2cccc3cccc1c23	–	–	16.4 µM	33	15.6 µM	31.2 µM	14.6 µM	29.9 µM	10.5 µM	25.2 µM	17.6 µM	42.7 µM	14.3 µM	27.9	15 µM	31.8 µM	0.737 µM	18.4 µM
